Assay results as given in paper PMC5056396, “Hexokinase I N-terminal based peptide prevents the VDAC1-SOD1 G93A interaction and re-establishes ALS cell viability” (Scientific Reports, 2016).

What was measured:
[1] = system: NSC34-SOD1G93A cells; assay: Mitochondrial membrane potential (ΔΨm) by flow cytometry; assay type: cell-based, mouse; conditions: TMRM
Description: To evaluate the NHK1 influence on mitochondrial functionality, mitochondrial membrane potential variation (ΔΨm) was assayed in the presence of NHK1 peptide or HK1. ΔΨm is related to the ATP production by oxidative phosphorylation; therefore, it is considered an indication of good mitochondrial and cellular health. Using mitochondria-targeted fluorescent probes, we estimated in flow cytometry the rate of mitochondrial depolarization. NSC34-SOD1G93A cells shown a high level of depolarized mitochondria compared to NSC34-SOD1WT. […] Similarly to NHK1 peptide, the expression of the whole HK1 reduced the depolarized mitochondria of about 15% (Fig. 7C).
ΔΨm was measured using tetramethyl-rhodamine methyl ester (TMRM) or Rhodamine 123 (RH123) (Molecular Probes) according to the excitation/emission wavelength of the transfection reporter or of the transfected fluorescent protein used. Both probes accumulates in active mitochondria due to their positive charge, whereby the reduction of ΔΨm leads to the release of fluorescent probes. Transfected NSC34-SOD1WT and NSC34-SOD1G93A cells were washed with PBS and incubated for 30 min at 37 °C with Krebs Ringer Buffered Saline supplemented with either 200 nM TMRM or 0.1 μg/mL RH123 and 20 μM Verapamil (as a multi drug-resistant pump inhibitor) (Sigma). Cells were then harvested and immediately analyzed by flow cytometry. Cells were excited by an air-cooled argon 488 nm laser, reading the GFP fluorescence of HK1-GFP or RH123 fluorescence in FL1 log mode; TMRM and mtDsRED used as transfection reporter of NHK1 peptide were read on FL3 log mode. Only viable cells detected by reading the scattering indicated as FSC and SSC, were considered for our analysis. The threshold physiological value of ΔΨm was estimated by using cells exposed to 1 μM of the uncoupling agent FCCP as a negative control. Data reported are representative for three sets of independent experiments, each performed at least in triplicate and based on 20.000 events for each group. Data were statistical analyzed by chi-square test. A p < 0,001 was taken as significant.

[2] = system: VDAC1-SOD1 G93A interaction; assay: In vitro VDAC1-SOD1 G93A binding assay after pre-incubation with HK1 or peptide (western blot, densitometry); set-up: species or system human; conditions: for reduction of SOD1 G93A in VDAC1-bound fraction: 6.25 μM SOD1 G93A, n = 3
Text: It is well known that HKs bind to VDAC1 in physiological conditions. We hypothesized that the available area for interaction with soluble proteins is a limited, exposed portion of the transmembrane pore VDAC1. […] For this reason, we repeated the VDAC1-SOD1 G93A binding assay, adding increasing concentrations of HK1. […] The reduction corresponds to the increase of HK1 in VDAC1-bound fraction, and it is proportional to the HK1 concentrations added in the assay (Fig. 3A).
In order to evaluate the NHK1 ability to interfere with VDAC1-SOD1 G93A interaction, a binding assay was performed. Increasing concentrations of NHK1 were added to immobilized-VDAC1, before SOD1 G93A addition. […] In fact, a 20-fold smaller concentration of peptide was used to obtain a result similar to that obtained by using the whole HK1 in the previous experiment (see Fig. 3A).
Recombinant VDAC1 was immobilized onto Ni-NTA Magnetic Agarose Beads (Qiagen) by exploiting its 6xHis-tag, according with manufacture’s protocol. For each experiment, a large excess of VDAC1 (30 μM) were incubated with 50 μL of beads suspension in Interaction Buffer (IB) (300 mM NaCl, 50 mM NaH2PO4, 20 mM imidazole, pH 8.0) to saturate all sites. Beads were collected using the magnet-based system DynaMag-2 (Life Technologies) and washed twice in Wash Buffer (300 mM NaCl, 50 mM NaH2PO4, 20 mM imidazole, 0.05% Tween-20, pH 6.3) to remove any excess of VDAC1. Beads-immobilized VDAC1 were incubated with 6.25 μM SOD1 WT or G93A, for 1 h at RT, under constant shaking, in 100 μL of IB. The assay was also performed by pre-incubating immobilized-VDAC1 for an extra 1 h with increasing concentration of purified human HK1 (0, 100, 200 μM) or NHK1 peptide (0, 5, 10, 25 μM), before SOD1 G93A addition. Beads were recovered using Dyna-Mag2 system and VDAC1-complexes were eluted from beads using 50 μL of Elution Buffer (300 mM NaCl, 50 mM NaH2PO4, 300 mM imidazole, pH 3.5). Any protein in VDAC1-bound and -unbound fractions was evaluated by western blot. Three independent experiments were performed for each condition tested.

[3] = system: human VDAC1 reconstituted into PLB; assay: VDAC1 channel conductance in planar lipid bilayer (PLB); assay type: biochemical; conditions: for effect on single channel VDAC1 conductance: +25 mV, 0.2 μM SOD1 proteins or 15 μM peptide; for effect on voltage-dependence of VDAC1, triangular voltage ramps: symmetric 1 M KCl, ramps 0 to ±50 mV
Text: Purified VDAC1 was reconstituted into a planar phospholipid bilayer (PLB) and its channel conductance was monitored before and after addition of SOD1 proteins, on cis or trans side of the membrane. […] Moreover, the effect of SOD1 proteins on the voltage-dependence of VDAC1 was monitored by triangular voltage ramps from 0 to ±50 mV. […] The current linearly follows the voltage applied up to about ±25 mV, where VDAC1 decreases its channel conductance through step-like transitions, remaining in low-conducting states.
Under standard experimental condition (1 M KCl and an applied potential of +25 mV) the VDAC1 channel was mainly in low-conducting closed states. […] The effect of NHK1 on the channel conductance is even more evident by plotting the amplitude values obtained in the current traces as a function of the number of events. While for VDAC1 alone the amplitude values appear as a main peak corresponding to the closed states (Fig. 4B), the presence of NHK1 caused a different distribution of events: an additional, different peak corresponding to the open state was visible, together with the closed states peak (Fig. 4C). […] The effect of NHK1 on the voltage-dependence of VDAC1 was monitored by triangular voltage ramps. […] In this experiment, indeed, VDAC1 completely loose, very precociously (already at ±15 mV applied), its ability to linearly respond to the applied voltage: a continuous switch from open to closed states was observed, especially at positive potentials. […] Upon NHK1 incubation, VDAC1 current transitions at positive voltages are very noisy and pass through different sub-conductance states (Fig. 4F).
Purified VDAC1 was reconstituted into a Planar Lipid Bilayer (PLB) apparatus (Warner Instruments, Hamden, CT, USA), previously described. Bilayers were prepared using asolectin (Sigma) dissolved in decane (Sigma) containing 1% chloroform (Sigma) across a 200 μm hole in a derlin cuvette (Warner Instruments). Experiments were performed in 1 M KCl, 10 mM Hepes, pH 7.0[40][46]. Control experiments using empty membrane and/or detergents were performed to avoid activity in any of the above solutions. Data were acquired using a Bilayer Clamp amplifier (Warner Instruments) at 100 μs/point, filtered at 200 Hz and analyzed offline using Clampfit 10.4 program set (Axon Instruments, Union City, CA, USA). Single channel analysis of VDAC1 was performed in presence or not of 0.2 μM of SOD1 WT or G93A, 15 μM NHK1 or ScNHK1 peptide.

| Sequence | partial recovery of physiological ΔΨm ([1]; NSC34-SOD1G93A expressing scramble peptide) | effect on SOD1 G93A in VDAC1-bound fraction ([2]; scramble control, same assay) | effect on single channel VDAC1 conductance ([3]; 1 M KCl) | effect on voltage-dependence of VDAC1, triangular voltage ramps [3] | reduction of depolarized mitochondria ([1]; NSC34-SOD1G93A expressing peptide, n = 3) [%] | reduction of SOD1 G93A in VDAC1-bound fraction ([2]; 10 μM peptide pre-incubated 1 h) [%] | reduction of SOD1 G93A in VDAC1-bound fraction ([2]; 25 μM peptide pre-incubated 1 h) [%] | negative membrane potential at which regions of decreased slope already appear (I-V plot) ([3]; 1 M KCl, upon peptide incubation) [mV] |
| --- | --- | --- | --- | --- | --- | --- | --- | --- |
| FAQLTIALAYY [ScNHK1, scramble peptide (…) synthetized and used as control, reference compound] | not | No similar effect | No influence on the electrophysiological activity | no difference was found |  |  |  |  |
| IAAQLLAYYFT [NHK1, peptide corresponding to residues 2–12 (N-terminal region) of human HK1 protein (…)] |  |  | induced several fast and reversible events of VDAC1 low-conducting closed states | strongly affected the channel voltage-dependence of VDAC1 | 20 | 40 | 80 | −10 |
